For nine compounds, IC50, IC90 and Activity results are on record in ChEMBL document CHEMBL3352781, “Synthesis, antileishmanial and antitrypanosomal activities of N-substituted tetrahydro-β-carbolines” (Bioorg Med Chem Lett, 2014).

Data set [1] deals with Leishmania infantum. The data set is described as follows: Antimicrobial activity against amastigote stage of Leishmania infantum. It is filed as functional, organism-based.
The test system of data set [2] is Leishmania infantum. The data set is described as follows: Antimicrobial activity against promastigote stage of Leishmania infantum. It is filed as functional, organism-based.
The subject of data set [3] is Leishmania donovani. The experiment in a line: Antimicrobial activity against promastigote stage of Leishmania donovani after 72 hrs by Alamar Blue assay. It is filed as functional, organism-based. The following applies: Leishmania donovani, 72 h; for IC50: read-out: IC50. In general terms: Resazurin is reduced to fluorescent resorufin, in cell work by metabolically active cells.

The subject of data set [4] is Leishmania donovani. The data set is described as follows: Antimicrobial activity against axenic amastigote stage of Leishmania donovani after 72 hrs by Alamar Blue assay. It is filed as functional, organism-based.
Data set [5] has as its system Leishmania donovani. The experiment in a line: Antimicrobial activity against promastigote stage of Leishmania donovani infected in human THP1 cells after 72 hrs by Alamar Blue assay. It is filed as functional, organism-based.
The test system of data set [6] is Trypanosoma brucei. The experiment in a line: Antimicrobial activity against trypamastigote stage of Trypanosoma brucei after 72 hrs by Alamar Blue assay. It is filed as functional, organism-based.
Data set [7] concerns THP-1. The experiment in a line: Cytotoxicity against human THP1 cells up to 10 ug/ml after 48 hrs by neutral red assay. The data set is classed as cell-based. To be noted: thp-1, 48 h.
Data set [8] has as its system HepG2. The data set is described as follows: Cytotoxicity against human HepG2 cells after 48 hrs by neutral red assay. The following applies: HepG2, 48 h. It is filed as cell-based.
Data set [9] concerns Trypanosoma cruzi. The data set is described as follows: Antimicrobial activity against epimastigote stage of Trypanosoma cruzi Y. The data set is classed as functional, organism-based.
Data set [10] concerns LLC-PK1. The data set is described as follows: Cytotoxicity against pig LLC-PK1 cells after 48 hrs by neutral red assay. To be noted: Sus scrofa, LLC-PK1, 48 h. It is filed as cell-based.
The subject of data set [11] is Vero. The data set is described as follows: Cytotoxicity against African green monkey Vero cells up to 25 ug/ml after 48 hrs by neutral red assay. The data set is classed as cell-based. The following applies: chlorocebus sabaeus.
Data set [12] has as its system HepG2. The experiment in a line: Cytotoxicity against human HepG2 cells up to 25 ug/ml after 48 hrs by neutral red assay. The data set is classed as cell-based. The following applies: hepg2, 48 h.
The subject of data set [13] is LLC-PK1. The data set is described as follows: Cytotoxicity against pig LLC-PK1 cells up to 25 ug/ml after 48 hrs by neutral red assay. It is filed as cell-based, Sus scrofa. To be noted: llc-pk1, 48 h.
Data set [14] deals with Trypanosoma brucei brucei. The experiment in a line: Antimicrobial activity against bloodstream form of Trypanosoma brucei brucei TC221. It is filed as functional, organism-based.
Where [15] appears, read: Leishmania donovani, 72 h, read-out: IC50.
The mark [16] stands for this setting: Trypanosoma brucei, 72 h, read-out: IC50.

Activity calls are given as the source filed them. The calls are words filed in the database; no cut-off is given here.

Consider `COc1ccc2c3c([nH]c2c1)C(C)=NCC3` [HARMALINE], for which the IC50 amounted to 1.16 µM in data set [1], 117 µM in data set [2], 117 µM in data set [3] and 1.16 µM in [4] (setting [15]).
In the case of `O=C(c1ccc(-c2cc(C(F)(F)F)ccc2Cl)o1)N1CCc2c([nH]c3ccccc23)C1`, the IC90 in data set [3] stood at 69.1 µM; in [4] (Leishmania donovani, 72 h), 76 µM. Also, the IC50 in data set [3] is 39.6 µM; in [4] (setting [15]), 37.1 µM; in data set [5] (thp-1), “Not Active”; in [6], “Not Active”; in [8], 25.5 µM. Besides, the IC90 result in data set [5] (THP-1) and in data set [6] was “inactive” throughout. Further, the Activity result in data set [7] is on record as “Non-toxic”.
The compound `CN1CCN(C(=O)c2cc3c4ccccc4n4c(=O)c5ccccc5c(n2)c34)CC1` gave an IC50 in [9] of 0.4 µM.
As for `O=C(c1ccc([N+](=O)[O-])s1)N1CCc2c([nH]c3ccccc23)C1`, the IC90 is 36.6 µM in [3] and 107 µM in [4] (Leishmania donovani, 72 h). The half-inhibitory concentration (IC50) in [3] is 12.7 µM; in data set [4] (setting [15]), 62.8 µM; in [5] (thp-1) it was “Not Active”; in [6] it was “Not Active”; in data set [8] it was 63.6 µM; in data set [10] it was 56 µM. The IC90 result in data set [5] (THP-1) and in data set [6] was “inactive” in each case. The Activity result in data set [7] is “Non-toxic”.
With `c1ccc2c3c([nH]c2c1)CN(Cc1ccncc1)CC3`, the half-maximal inhibitory concentration (IC50) in [3] was 121 µM; in data set [4], “Not Active”; in data set [5] (thp-1) it was “Not Active”; in [6] (setting [16]) it was 26.2 µM. The IC90 entry in [4] and in data set [5] (THP-1) was “inactive” in each case. The Activity result in data set [7], in [11], in data set [12] and in data set [13] was “Non-toxic” throughout.
`c1ccc2cc(CN3CCc4c([nH]c5ccccc45)C3)ccc2c1`: the IC90 in data set [3] was 28.1 µM; in [5] (Leishmania donovani, THP-1, 72 h), over 32 µM; in data set [6] (Trypanosoma brucei, 72 h), 17.6 µM. The IC50 in [3] was found to be 22.1 µM; in data set [4] (setting [15]) it was 87.6 µM; in [5] (Leishmania donovani, THP-1, 72 h, read-out: IC50), 28.3 µM; in data set [6] (setting [16]) it was 10.2 µM. The Activity result in [7], in data set [11], in data set [12] and in [13] was “Non-toxic” throughout.
As to `Cc1nccc2c1[nH]c1ccccc12` [HARMAN], the IC50 in [1] was found to be 0.27 µM; in [2], 19.2 µM; in [3] it was 19.2 µM; in data set [4] (setting [15]) it was 0.27 µM.
For the compound `COc1ccc2c(c1)[nH]c1c(C)nccc12` [HARMINE], the IC50 in data set [1] was found to be 0.23 µM; in data set [2], 3.7 µM; in data set [14] it was 74 µM; in data set [3], 3.7 µM; in [4] (setting [15]) it was 0.23 µM; in data set [6] (setting [16]) it was 74 µM.
For `O=C(c1ccc(-c2ccc(-c3ccccc3)cc2)o1)N1CCc2c([nH]c3ccccc23)C1`, the IC90 in data set [3] is 111 µM; in [4] (Leishmania donovani, 72 h), 110 µM. For the same compound, the IC50 is 75.3 µM in [3], 83.4 µM in [4] (setting [15]), “Not Active” in data set [5] (thp-1) and “Not Active” in data set [6]. Further, the IC90 result in [5] (THP-1) and in data set [6] was “inactive” in each case. Further, the Activity entry in [7], in [11], in data set [12] and in data set [13] was “Non-toxic” in each case.

As usually defined, the IC50 is the concentration that gives 50% inhibition. What is called IC90 is the concentration needed for an effect of 90%.
